Measurements published in PubChem BioAssay (NCI).
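Values below derive from 48-hour exposures of cells grown in 96-well plates, with endpoints linearly interpolated between the two concentrations bracketing the appropriate inhibition level. TGI marks complete inhibition of growth.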

Key:
Experiment in all cases: NCI-60 cell line screen, 48 h
HL-60(TB) leukemia = test system: HL-60(TB) leukemia
NCI-H23 lung = test system: NCI-H23 lung
LOX IMVI melanoma = test system: LOX IMVI melanoma
CCRF-CEM leukemia = test system: CCRF-CEM leukemia
SF-295 CNS = test system: SF-295 CNS
NCI-H522 lung = test system: NCI-H522 lung
UACC-62 melanoma = test system: UACC-62 melanoma
T-47D breast = test system: T-47D breast
786-0 renal = test system: 786-0 renal
OVCAR-3 ovarian = test system: OVCAR-3 ovarian
HCT-15 colon = test system: HCT-15 colon
K-562 leukemia = test system: K-562 leukemia
SNB-19 CNS = test system: SNB-19 CNS
A549 NSCLC = test system: A549 NSCLC
SW-620 colon = test system: SW-620 colon
EKVX NSCLC = test system: EKVX NSCLC
SK-MEL-28 melanoma = test system: SK-MEL-28 melanoma
U251 CNS = test system: U251 CNS
UO-31 renal = test system: UO-31 renal
SNB-75 CNS = test system: SNB-75 CNS
MDA-N = test system: MDA-N
SF-539 CNS = test system: SF-539 CNS
HT29 colon = test system: HT29 colon
RXF 393 renal = test system: RXF 393 renal
HOP-92 NSCLC = test system: HOP-92 NSCLC
MALME-3M melanoma = test system: MALME-3M melanoma
KM12 colon = test system: KM12 colon
ACHN renal = test system: ACHN renal
PC-3 prostate = test system: PC-3 prostate
SK-MEL-5 melanoma = test system: SK-MEL-5 melanoma
HS 578T breast = test system: HS 578T breast
HCT-116 colon = test system: HCT-116 colon
M14 melanoma = test system: M14 melanoma
MDA-MB-231 breast = test system: MDA-MB-231 breast
CAKI-1 renal = test system: CAKI-1 renal
SN12C renal = test system: SN12C renal
SK-OV-3 ovarian = test system: SK-OV-3 ovarian
SF-268 CNS = test system: SF-268 CNS
BT-549 breast = test system: BT-549 breast
SK-MEL-2 melanoma = test system: SK-MEL-2 melanoma
OVCAR-8 ovarian = test system: OVCAR-8 ovarian
COLO 205 colon = test system: COLO 205 colon
OVCAR-5 ovarian = test system: OVCAR-5 ovarian
IGROV1 ovarian = test system: IGROV1 ovarian
MDA-MB-435 = test system: MDA-MB-435
NCI-H460 lung = test system: NCI-H460 lung
TK-10 renal = test system: TK-10 renal
NCI-H226 lung = test system: NCI-H226 lung
RPMI-8226 leukemia = test system: RPMI-8226 leukemia
HOP-62 NSCLC = test system: HOP-62 NSCLC
DU-145 prostate = test system: DU-145 prostate
A498 renal = test system: A498 renal
UACC-257 melanoma = test system: UACC-257 melanoma
NCI/ADR-RES ovarian = test system: NCI/ADR-RES ovarian
OVCAR-4 ovarian = test system: OVCAR-4 ovarian
HCC-2998 colon = test system: HCC-2998 colon
SR leukemia = test system: SR leukemia
MCF7 breast = test system: MCF7 breast
MOLT-4 leukemia = test system: MOLT-4 leukemia

COC1C(O)C(C)OC(OC2CC3CCC4C(CCC5(C)C(C6=CC(=O)OC6)CCC45O)C3(O)C(OC(C)=O)C2)C1O (configuration not stated)
TGI (HL-60(TB) leukemia): 4.23 µM
TGI (NCI-H23 lung): 2.61 µM
TGI (LOX IMVI melanoma): 4.7 µM
TGI (CCRF-CEM leukemia): > 100 µM
TGI (SF-295 CNS): 8.57 µM
TGI (NCI-H522 lung): 3.21 µM
TGI (UACC-62 melanoma): 5.92 µM
TGI (T-47D breast): 12.7 µM
TGI (786-0 renal): > 100 µM
TGI (OVCAR-3 ovarian): 3.38 µM
TGI (HCT-15 colon): 5.41 µM
TGI (K-562 leukemia): > 100 µM
TGI (SNB-19 CNS): 14.9 µM
TGI (A549 NSCLC): 1.41 µM
TGI (SW-620 colon): > 36.7 µM
TGI (EKVX NSCLC): 3.14 µM
TGI (SK-MEL-28 melanoma): > 37.6 µM
TGI (U251 CNS): > 24.2 µM
TGI (UO-31 renal): 4.51 µM
TGI (SNB-75 CNS): > 31.2 µM
TGI (MDA-N): 5.05 µM
TGI (SF-539 CNS): 1.95 µM
TGI (HT29 colon): 12.7 µM
TGI (RXF 393 renal): 1.32 µM
TGI (HOP-92 NSCLC): 11.6 µM
TGI (MALME-3M melanoma): 3.74 µM
TGI (KM12 colon): > 48.8 µM
TGI (ACHN renal): 2.13 µM
TGI (PC-3 prostate): 8.77 µM
TGI (SK-MEL-5 melanoma): 2.03 µM
TGI (HS 578T breast): > 100 µM
TGI (HCT-116 colon): 4.75 µM
TGI (M14 melanoma): 5.5 µM
TGI (MDA-MB-231 breast): 97.3 µM
TGI (CAKI-1 renal): 3.43 µM
TGI (SN12C renal): 2.6 µM
TGI (SK-OV-3 ovarian): 6.82 µM
TGI (SF-268 CNS): 2.54 µM
TGI (BT-549 breast): 2.02 µM
TGI (SK-MEL-2 melanoma): 10.1 µM
TGI (OVCAR-8 ovarian): 5.35 µM
TGI (COLO 205 colon): 8.48 µM
TGI (OVCAR-5 ovarian): 5.87 µM
TGI (IGROV1 ovarian): 15.7 µM
TGI (MDA-MB-435): 10.5 µM
TGI (NCI-H460 lung): 2.74 µM
TGI (TK-10 renal): 6.8 µM
TGI (NCI-H226 lung): 10.3 µM
TGI (RPMI-8226 leukemia): 7.55 µM
TGI (HOP-62 NSCLC): 2.59 µM
TGI (DU-145 prostate): 1.65 µM
TGI (A498 renal): 3.5 µM
TGI (UACC-257 melanoma): 16.5 µM
TGI (NCI/ADR-RES ovarian): 6.32 µM
TGI (OVCAR-4 ovarian): 17.1 µM
TGI (HCC-2998 colon): 13 µM

Nc1cc(N2CCOCC2)nc(=O)n1-c1ccc(Cl)cc1
TGI (HL-60(TB) leukemia): > 100 µM
TGI (NCI-H23 lung): > 100 µM
TGI (LOX IMVI melanoma): > 100 µM
TGI (CCRF-CEM leukemia): > 100 µM
TGI (SF-295 CNS): > 100 µM
TGI (UACC-62 melanoma): > 100 µM
TGI (T-47D breast): > 100 µM
TGI (786-0 renal): > 100 µM
TGI (OVCAR-3 ovarian): > 100 µM
TGI (HCT-15 colon): > 100 µM
TGI (K-562 leukemia): > 100 µM
TGI (SNB-19 CNS): > 100 µM
TGI (A549 NSCLC): > 100 µM
TGI (SW-620 colon): > 100 µM
TGI (EKVX NSCLC): > 100 µM
TGI (SK-MEL-28 melanoma): > 100 µM
TGI (U251 CNS): > 100 µM
TGI (UO-31 renal): > 100 µM
TGI (SNB-75 CNS): > 100 µM
TGI (MDA-N): > 100 µM
TGI (SF-539 CNS): > 100 µM
TGI (HT29 colon): > 100 µM
TGI (HOP-92 NSCLC): > 100 µM
TGI (KM12 colon): > 100 µM
TGI (SR leukemia): > 100 µM
TGI (ACHN renal): > 100 µM
TGI (PC-3 prostate): > 100 µM
TGI (SK-MEL-5 melanoma): > 100 µM
TGI (HCT-116 colon): > 100 µM
TGI (M14 melanoma): > 100 µM
TGI (CAKI-1 renal): > 100 µM
TGI (SN12C renal): > 100 µM
TGI (SK-OV-3 ovarian): > 100 µM
TGI (BT-549 breast): > 100 µM
TGI (SK-MEL-2 melanoma): > 100 µM
TGI (OVCAR-8 ovarian): > 100 µM
TGI (COLO 205 colon): > 100 µM
TGI (OVCAR-5 ovarian): > 100 µM
TGI (IGROV1 ovarian): > 100 µM
TGI (MDA-MB-435): > 100 µM
TGI (NCI-H460 lung): > 100 µM
TGI (NCI-H226 lung): > 100 µM
TGI (RPMI-8226 leukemia): > 100 µM
TGI (MCF7 breast): > 100 µM
TGI (HOP-62 NSCLC): > 100 µM
TGI (DU-145 prostate): > 100 µM
TGI (A498 renal): > 100 µM
TGI (UACC-257 melanoma): > 100 µM
TGI (NCI/ADR-RES ovarian): > 100 µM
TGI (MOLT-4 leukemia): > 100 µM
TGI (HCC-2998 colon): > 100 µM
